Reference: patent US10849875B2, “Cancer specific lipid targeted peptidomimetics” (University of Houston System, priority 2015, dated 2020)
Entries after “also recorded” stand apart in the source; their conditions may differ. Positions of bridges follow the written chain, without caps; N, C: chain ends. Non-standard residues stand in square brackets, D forms with d. Residues, ends and D or L forms follow the SMILES beside them. Chains are numbered I, II in the order given. Gly(N-piperonyl) = O=C(O)CNCc1ccc2c(c1)OCO2; N(4-MeOBn)Gly = COc1ccc(CNCC(=O)O)cc1; Nrpe = C[C@@H](NCC(=O)O)c1ccccc1; Nlys = NCCCCNCC(=O)O

How the values were obtained:
H460 xenografts = assay: Inhibition of growth of H460 lung cancer xenograft; assay type: in vivo, mice; conditions: for tumor size reduction: H460 in nude mice, daily dose of 0.5 mg/mL
Description: Whether PPS1D1 would inhibit tumor growth in a murine model was examined. H460 cells were implanted in nude mice. Tumors were allowed grow until it reach […]. These xenografts were then treated with a daily dose of […] in four different groups that consist of PPS1D1 alone, docetaxel alone, PPS1D1 and docetaxel together or with the control peptoid (PC462D1) alone. Docetaxel is a standard chemotherapeutic treatment for non-small cell carcinoma. The activity of PPSD1 and its ability to work as a combination treatment were examined. […] This effect was extremely potent and the tumor growth was completely controlled. […] It has been reported that chemotherapy and radiation therapy increase the PS flipping in tumor microenvironment. Therefore, Docetaxel might have helped improve binding of PPS1D1 on cancer cell surface that is now displaying an increased amount of PS to be targeted. After the standard chemotherapy and radiation therapy, the target PS is highly abundant for the drug to recognize and attack.
The effect of PPS1D1 on the growth of H460 xenografts implanted in NOD/SCID immunodeficient mice was examined. Immunodeficient animals were chosen to facilitate the growth of human tumor xenografts. […] Therapy with a control peptoid (PC462D1, 0.25 mg/mouse, 3×/week ip), PPS1D1 (0.25 mg/mouse, 3×/week ip), docetaxel (0.5 mg/kg, 2×/week, ip) or the combination of PPS1D1+docetaxel was initiated when tumors were ˜100 mm3 in volume. […] Tumor tissue was harvested after 4 weeks of therapy and assessed for cell proliferation and apoptosis by immunohistochemistry. […] It is clear from studies with bavituximab that standard chemotherapy (e.g., taxanes) increases the exposure of PS resulting in elevated binding of the PS targeting agent. A similar mechanism can underlie the enhanced activity of docetaxel and PPS1D1.
All animals were housed in a pathogen-free facility with continuous access to food and water. Mice were purchased from the core breeding facility at UT Southwestern. Six to eight-week-old female NOD/SCID mice were injected with 2.5×10^6 H460 cells subcutaneously. Tumor volume was followed by twice weekly measurements with Vernier calipers. Animals were randomized and treatment was initiated with mean tumor volume of each group was 100 mm3. Four different groups used were: (I) control PC462D1, (II) PPS1D1, (III) docetaxel, and (IV) combination of PPS1D1+docetaxel. Mice (n=8/group) were treated with PPS1D1 or PC462D1 in saline by ip injection at a dose of 0.25 mg/mouse, 3 times per week on a M-W-F schedule. Docetaxel from the UT Southwestern Clinical pharmacy was diluted in saline and delivered 2×/week ip at 5 mg/kg. Animals were sacrificed after 4 weeks of therapy. Tumor tissue was snap frozen, sectioned and stained with antibodies specific for phospho-Histone H3 (Millipore, #06-570) and cleaved caspase 3 (Cell Signaling, #9664). Reactivity was developed with appropriate fluorescently conjugated secondary antibodies (Jackson ImmunoResearch) and mounted with Prolong Gold with DAPI (Invitrogen), coverslipped and evaluated by fluorescence microscopy.

[1] = In vitro cellular activity of PS targeted peptoid derivatives; assay type: cell-based
Excerpt: Peptoid compounds include but are not limited to PPS1D1 (FIG. 15), PPS1-DE2 (FIG. 16), PPS1-RD1 (FIG. 17), PPS1-2P3H (FIG. 18), PPS1-4P3H (FIG. 19), PPS1-Tri-1 (FIG. 20), PPS1-Tet-1 (FIG. 21), and PPS2D1 (FIG. 22). […] PPS1D1 has a validated in vivo animal tumor burden activity.

**Q.** Which results are given for COc1ccc(CN(CC(=O)N(CCCCN)CC(=O)N[C@@H](CCCCN)C(=O)N[C@H](CCCCN)C(=O)N[C@@H](CCSC)C(=O)NCCCC[C@H](NC(=O)[C@H](CCSC)NC(=O)[C@@H](CCCCN)NC(=O)[C@H](CCCCN)NC(=O)CN(CCCCN)C(=O)CN(Cc2ccc(OC)cc2)C(=O)CN(C(=O)CN(Cc2ccc3c(c2)OCO3)C(=O)CN[C@H](C)c2ccccc2)[C@H](C)c2ccccc2)C(N)=O)C(=O)CN(C(=O)CN(Cc2ccc3c(c2)OCO3)C(=O)CN[C@H](C)c2ccccc2)[C@H](C)c2ccccc2)cc1 [PPS1D1] (I: H-[Nrpe][Gly(N-piperonyl)][Nrpe][N(4-MeOBn)Gly][Nlys]K[dK]MK-NH2 / II: H-[Nrpe][Gly(N-piperonyl)][Nrpe][N(4-MeOBn)Gly][Nlys]K[dK]M; amide I:9-II:C; N-terminus assumed)?
**A.** tumor growth (tumor volume vs days post therapy initiation) (H460 xenografts; H460 in NOD/SCID mice, peptoids 0.25 mg/mouse 3x/week ip, docetaxel 0.5 mg/kg 2x/week ip): slowed tumor growth; tumor size reduction (H460 xenografts): strong tumor burden effect; also recorded: equally effective in reducing the size of the tumors; tumor size reduction (H460 xenografts; listed as PPSD1): slightly better effect; animal weight loss (H460 xenografts; at the doses used): did not induce animal weight loss; in vitro cellular activity [1]: validated in vitro cellular activity
